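Each compound was tested at five concentrations against cells in 96-well plates for 48 hours. GI50 = concentration required for 50% inhibition of growth.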 Activity calls are given as the source filed them. Rule as the data show it: active = GI50 up to about 1.1 µM and inactive = higher.
Tests used:
Experiment in all cases: NCI-60 cell line screen, 48 h
[1] = tested on: SW-620
[2] = tested on: SF-539
[3] = tested on: T47D
[4] = tested on: HCT-15
[5] = tested on: TK-10
[6] = tested on: UACC-257
[7] = tested on: HCC 2998
[8] = tested on: COLO 205
[9] = tested on: NCI-H460
[10] = tested on: MCF7
[11] = tested on: SN12C
[12] = tested on: SK-MEL-28
[13] = tested on: OVCAR-4
[14] = tested on: SF-295
[15] = tested on: HOP-62
[16] = tested on: NCI/ADR-RES
[17] = tested on: SNB-19
[18] = tested on: OVCAR-8
[19] = tested on: LOX IMVI
[20] = tested on: HL-60

SMILES	GI50 [1]	GI50 [2]	GI50 [3]	GI50 [4] [µM]	GI50 [5]	GI50 [6]	GI50 [7]	GI50 [8]	GI50 [9]	GI50 [10]	GI50 [11]	GI50 [12]	GI50 [13]	GI50 [14]	GI50 [15]	GI50 [16]	GI50 [17]	GI50 [18]	GI50 [19]	GI50 [20]
CC(C)(/C=N/O)/[N+]([O-])=C/c1ccccc1	> 100 µM (inactive)	> 100 µM (inactive)	> 100 µM (inactive)	> 100	> 100 µM (inactive)	> 100 µM (inactive)	> 100 µM (inactive)	> 100 µM (inactive)	> 100 µM (inactive)	> 100 µM (inactive)	> 100 µM (inactive)	> 100 µM (inactive)	> 100 µM (inactive)	> 100 µM (inactive)	> 100 µM (inactive)	> 100 µM (inactive)	> 100 µM (inactive)	> 100 µM (inactive)	> 100 µM (inactive)	–
Nc1ccccc1C(=O)CC1OC(=O)c2ccccc21 (stereo not drawn)	> 100 µM (inactive)	36 µM (inactive)	81.8 µM (inactive)	86.5	> 100 µM (inactive)	> 100 µM (inactive)	–	–	61.2 µM (inactive)	> 100 µM (inactive)	> 100 µM (inactive)	> 100 µM (inactive)	65.5 µM (inactive)	> 100 µM (inactive)	91 µM (inactive)	60.1 µM (inactive)	42.1 µM (inactive)	51.5 µM (inactive)	52.8 µM (inactive)	> 100 µM (inactive)
C/C(=N\N=C(\N)SB(F)F)c1ccc2ccccc2c1	71.8 µM (inactive)	> 100 µM (inactive)	> 100 µM (inactive)	95.5	> 100 µM (inactive)	> 100 µM (inactive)	> 100 µM (inactive)	> 100 µM (inactive)	> 100 µM (inactive)	87.7 µM (inactive)	> 100 µM (inactive)	> 100 µM (inactive)	> 100 µM (inactive)	> 100 µM (inactive)	–	> 100 µM (inactive)	> 100 µM (inactive)	> 100 µM (inactive)	56.4 µM (inactive)	–
O=c1[nH]c2cc([N+](=O)[O-])c(N(CCO)CCO)c([N+](=O)[O-])c2[nH]1	41.2 µM (inactive)	23.8 µM (inactive)	19.5 µM (inactive)	31.3	–	27 µM (inactive)	–	20 µM (inactive)	21.4 µM (inactive)	46.8 µM (inactive)	34.8 µM (inactive)	29.4 µM (inactive)	36 µM (inactive)	28.4 µM (inactive)	33 µM (inactive)	31.8 µM (inactive)	39.8 µM (inactive)	31.3 µM (inactive)	37.5 µM (inactive)	28.2 µM (inactive)
COc1ccc(/C=C/c2cc(O)cc(OC)c2)cc1	> 100 µM (inactive)	> 100 µM (inactive)	> 100 µM (inactive)	0.855	> 100 µM (inactive)	> 100 µM (inactive)	–	> 100 µM (inactive)	84.5 µM (inactive)	> 100 µM (inactive)	65.2 µM (inactive)	> 100 µM (inactive)	> 100 µM (inactive)	75.9 µM (inactive)	> 100 µM (inactive)	> 100 µM (inactive)	> 100 µM (inactive)	> 100 µM (inactive)	–	79.6 µM (inactive)
N#C/C(C(=O)Nc1ccccc1)=C(/N)N1CCOCC1	> 100 µM (inactive)	> 100 µM (inactive)	> 100 µM (inactive)	> 100	–	> 100 µM (inactive)	> 100 µM (inactive)	> 100 µM (inactive)	> 100 µM (inactive)	> 100 µM (inactive)	> 100 µM (inactive)	> 100 µM (inactive)	–	> 100 µM (inactive)	> 100 µM (inactive)	> 100 µM (inactive)	> 100 µM (inactive)	> 100 µM (inactive)	> 100 µM (inactive)	–
COc1ccccc1N1C(=O)/C(=C\c2ccccc2)SC1c1cc(OC)c(OC)c(OC)c1 (stereo not drawn)	–	–	5.97 µM (inactive)	32.3	> 100 µM (inactive)	83.4 µM (inactive)	37.3 µM (inactive)	35.9 µM (inactive)	–	32.3 µM (inactive)	17.6 µM (inactive)	54 µM (inactive)	53.5 µM (inactive)	30.1 µM (inactive)	46.7 µM (inactive)	32.1 µM (inactive)	66.8 µM (inactive)	42 µM (inactive)	21.9 µM (inactive)	–
NC(=O)C(c1ccccc1)N1OC2C(=O)N(c3ccccc3)C(=O)C2C1c1c2ccccc2c(Cl)c2ccccc12 (stereo not drawn)	> 100 µM (inactive)	> 100 µM (inactive)	> 100 µM (inactive)	> 100	–	–	–	> 100 µM (inactive)	–	> 100 µM (inactive)	> 100 µM (inactive)	> 100 µM (inactive)	> 100 µM (inactive)	> 100 µM (inactive)	> 100 µM (inactive)	> 100 µM (inactive)	> 100 µM (inactive)	> 100 µM (inactive)	> 100 µM (inactive)	> 100 µM (inactive)
C[Si](C)(C)CCOCN(C(=O)C1=CCC2(CC1)OCCO2)c1ccccc1I	22.3 µM (inactive)	22.1 µM (inactive)	12.8 µM (inactive)	17.8	27.6 µM (inactive)	20.9 µM (inactive)	21.1 µM (inactive)	37.4 µM (inactive)	20 µM (inactive)	14.2 µM (inactive)	28.1 µM (inactive)	19.4 µM (inactive)	21.1 µM (inactive)	15.5 µM (inactive)	20.7 µM (inactive)	26.7 µM (inactive)	19.2 µM (inactive)	32.5 µM (inactive)	29 µM (inactive)	–
Cc1cc2ccc(N)nc2nc1O	> 100 µM (inactive)	> 100 µM (inactive)	> 100 µM (inactive)	> 100	> 100 µM (inactive)	> 100 µM (inactive)	–	> 100 µM (inactive)	> 100 µM (inactive)	> 100 µM (inactive)	> 100 µM (inactive)	–	–	> 100 µM (inactive)	–	> 100 µM (inactive)	> 100 µM (inactive)	> 100 µM (inactive)	–	> 100 µM (inactive)
C(/C=N/N=C1NCCCN1)=N\N=C1NCCCN1	> 100 µM (inactive)	> 100 µM (inactive)	> 100 µM (inactive)	–	> 10 µM (inactive)	> 100 µM (inactive)	> 100 µM (inactive)	> 100 µM (inactive)	> 100 µM (inactive)	> 100 µM (inactive)	> 100 µM (inactive)	> 100 µM (inactive)	> 100 µM (inactive)	> 10 µM (inactive)	> 100 µM (inactive)	> 100 µM (inactive)	> 100 µM (inactive)	> 100 µM (inactive)	> 100 µM (inactive)	–
CC(=O)c1ccc(O)c(CN(C2CCCCC2)C2CCCCC2)c1O	81.1 µM (inactive)	> 100 µM (inactive)	21.6 µM (inactive)	> 100	74.3 µM (inactive)	> 100 µM (inactive)	–	> 100 µM (inactive)	> 100 µM (inactive)	> 100 µM (inactive)	> 100 µM (inactive)	> 100 µM (inactive)	> 100 µM (inactive)	> 100 µM (inactive)	> 100 µM (inactive)	> 100 µM (inactive)	> 100 µM (inactive)	> 100 µM (inactive)	> 100 µM (inactive)	–
O=C1CSC2(CCN(CCCN3c4ccccc4Sc4ccc(Cl)cc43)CC2)N1	11.2 µM (inactive)	13.1 µM (inactive)	3.57 µM (inactive)	6.78	9.4 µM (inactive)	9.35 µM (inactive)	3.99 µM (inactive)	10 µM (inactive)	4.08 µM (inactive)	5.9 µM (inactive)	10.8 µM (inactive)	15 µM (inactive)	10.5 µM (inactive)	10.3 µM (inactive)	12.9 µM (inactive)	4.9 µM (inactive)	12.1 µM (inactive)	11.3 µM (inactive)	3.88 µM (inactive)	–
CNc1c2c(c3nc4ccccc4c4c3c1N=C4)NCCC2=O [PLAKINIDINE A]	2.44 µM (inactive)	3.9 µM (inactive)	3.78 µM (inactive)	6.4	8.51 µM (inactive)	> 10 µM (inactive)	5.08 µM (inactive)	2.82 µM (inactive)	3.15 µM (inactive)	2.66 µM (inactive)	4.22 µM (inactive)	> 10 µM (inactive)	7.83 µM (inactive)	4.5 µM (inactive)	8.59 µM (inactive)	2.83 µM (inactive)	> 10 µM (inactive)	2.38 µM (inactive)	–	–
Oc1[nH]c(Nc2ccc(Cl)c(C(F)(F)F)c2)nc2ncnc1-2	70 µM (inactive)	26 µM (inactive)	24.5 µM (inactive)	> 100	52.6 µM (inactive)	59.2 µM (inactive)	24.7 µM (inactive)	27.2 µM (inactive)	51.8 µM (inactive)	27.2 µM (inactive)	32.5 µM (inactive)	–	72.1 µM (inactive)	> 100 µM (inactive)	> 100 µM (inactive)	> 100 µM (inactive)	45.1 µM (inactive)	31.8 µM (inactive)	25.5 µM (inactive)	–
O=CN(CCN1CCCC1)C1CCc2cc(Cl)c(Cl)cc2C1 (stereo not drawn)	27.3 µM (inactive)	30.5 µM (inactive)	11.1 µM (inactive)	15.8	16.3 µM (inactive)	15.2 µM (inactive)	17.5 µM (inactive)	20.4 µM (inactive)	0.196 µM (active)	–	11 µM (inactive)	–	18.7 µM (inactive)	0.166 µM (active)	11.3 µM (inactive)	19.5 µM (inactive)	0.851 µM (active)	20.6 µM (inactive)	14 µM (inactive)	19.2 µM (inactive)
